Test results from patent publication US7563782B2, “T-type calcium channel blocker” (Nissan Chemical Industries, Ltd., priority 2003, dated 2009).

What was measured:
T-type Ca channel (α1G) = molecular target: T1, T-type Ca channel (α1G) (Homo sapiens, UniProt O43497); experiment: Pharmacological Test Example 1: whole cell patch clamp, Ca current inhibition in BHK cells expressing T-type Ca channel; assay type: cell-based
T1 construct: expressed in transfected cells; host or cells: BHK (baby hamster kidney) cells
Procedure: (§1) Pharmacological Test Example 1 (effect on L-type and T-type Ca (calcium) channel expressed in mammalian cells (BHK cells))
(§2) In this test, an electrophysiological evaluation was carried out by use of BHK (baby hamster kidney) cells in which L-type Ca channel or T-type Ca channel (α1G) was expressed according to the method of Wakamori M et al. (Wakamori M et al.: J Biol Chem 273, 34857-34867,1998) based on the whole cell patch clamp method. Each Ca-ion current was measured through a patch clamp amplifier as an inward current when depolarization pulse (10 mV in L-type Ca channel, −20 mV in T-type Ca channel) was applied to cells maintained at a membrane potential of −80 mV. Optically active R-form or S-form of efonidipine was dissolved in extracellular solution and applied with perfusion. At 5 minutes after the application, any variation in Ca-ion current was measured. The results are shown in Ca current inhibition (%) of the compound of the present invention to Ca current (100%) in vehicle control.

L-type Ca channel = experiment: Pharmacological Test Example 1: whole cell patch clamp, Ca current inhibition in BHK cells expressing L-type Ca channel; assay type: cell-based; settings: for Inhibition (%): L-type Ca channel, BHK cells, 5 minutes after application, mean ± SE
Procedure: as §1, §2

[1] = T-type Ca channel, concentration 0.1 μM, BHK cells, 5 minutes after application, mean ± SE, 0.1 µM

T1 sequence (O43497 whole entry): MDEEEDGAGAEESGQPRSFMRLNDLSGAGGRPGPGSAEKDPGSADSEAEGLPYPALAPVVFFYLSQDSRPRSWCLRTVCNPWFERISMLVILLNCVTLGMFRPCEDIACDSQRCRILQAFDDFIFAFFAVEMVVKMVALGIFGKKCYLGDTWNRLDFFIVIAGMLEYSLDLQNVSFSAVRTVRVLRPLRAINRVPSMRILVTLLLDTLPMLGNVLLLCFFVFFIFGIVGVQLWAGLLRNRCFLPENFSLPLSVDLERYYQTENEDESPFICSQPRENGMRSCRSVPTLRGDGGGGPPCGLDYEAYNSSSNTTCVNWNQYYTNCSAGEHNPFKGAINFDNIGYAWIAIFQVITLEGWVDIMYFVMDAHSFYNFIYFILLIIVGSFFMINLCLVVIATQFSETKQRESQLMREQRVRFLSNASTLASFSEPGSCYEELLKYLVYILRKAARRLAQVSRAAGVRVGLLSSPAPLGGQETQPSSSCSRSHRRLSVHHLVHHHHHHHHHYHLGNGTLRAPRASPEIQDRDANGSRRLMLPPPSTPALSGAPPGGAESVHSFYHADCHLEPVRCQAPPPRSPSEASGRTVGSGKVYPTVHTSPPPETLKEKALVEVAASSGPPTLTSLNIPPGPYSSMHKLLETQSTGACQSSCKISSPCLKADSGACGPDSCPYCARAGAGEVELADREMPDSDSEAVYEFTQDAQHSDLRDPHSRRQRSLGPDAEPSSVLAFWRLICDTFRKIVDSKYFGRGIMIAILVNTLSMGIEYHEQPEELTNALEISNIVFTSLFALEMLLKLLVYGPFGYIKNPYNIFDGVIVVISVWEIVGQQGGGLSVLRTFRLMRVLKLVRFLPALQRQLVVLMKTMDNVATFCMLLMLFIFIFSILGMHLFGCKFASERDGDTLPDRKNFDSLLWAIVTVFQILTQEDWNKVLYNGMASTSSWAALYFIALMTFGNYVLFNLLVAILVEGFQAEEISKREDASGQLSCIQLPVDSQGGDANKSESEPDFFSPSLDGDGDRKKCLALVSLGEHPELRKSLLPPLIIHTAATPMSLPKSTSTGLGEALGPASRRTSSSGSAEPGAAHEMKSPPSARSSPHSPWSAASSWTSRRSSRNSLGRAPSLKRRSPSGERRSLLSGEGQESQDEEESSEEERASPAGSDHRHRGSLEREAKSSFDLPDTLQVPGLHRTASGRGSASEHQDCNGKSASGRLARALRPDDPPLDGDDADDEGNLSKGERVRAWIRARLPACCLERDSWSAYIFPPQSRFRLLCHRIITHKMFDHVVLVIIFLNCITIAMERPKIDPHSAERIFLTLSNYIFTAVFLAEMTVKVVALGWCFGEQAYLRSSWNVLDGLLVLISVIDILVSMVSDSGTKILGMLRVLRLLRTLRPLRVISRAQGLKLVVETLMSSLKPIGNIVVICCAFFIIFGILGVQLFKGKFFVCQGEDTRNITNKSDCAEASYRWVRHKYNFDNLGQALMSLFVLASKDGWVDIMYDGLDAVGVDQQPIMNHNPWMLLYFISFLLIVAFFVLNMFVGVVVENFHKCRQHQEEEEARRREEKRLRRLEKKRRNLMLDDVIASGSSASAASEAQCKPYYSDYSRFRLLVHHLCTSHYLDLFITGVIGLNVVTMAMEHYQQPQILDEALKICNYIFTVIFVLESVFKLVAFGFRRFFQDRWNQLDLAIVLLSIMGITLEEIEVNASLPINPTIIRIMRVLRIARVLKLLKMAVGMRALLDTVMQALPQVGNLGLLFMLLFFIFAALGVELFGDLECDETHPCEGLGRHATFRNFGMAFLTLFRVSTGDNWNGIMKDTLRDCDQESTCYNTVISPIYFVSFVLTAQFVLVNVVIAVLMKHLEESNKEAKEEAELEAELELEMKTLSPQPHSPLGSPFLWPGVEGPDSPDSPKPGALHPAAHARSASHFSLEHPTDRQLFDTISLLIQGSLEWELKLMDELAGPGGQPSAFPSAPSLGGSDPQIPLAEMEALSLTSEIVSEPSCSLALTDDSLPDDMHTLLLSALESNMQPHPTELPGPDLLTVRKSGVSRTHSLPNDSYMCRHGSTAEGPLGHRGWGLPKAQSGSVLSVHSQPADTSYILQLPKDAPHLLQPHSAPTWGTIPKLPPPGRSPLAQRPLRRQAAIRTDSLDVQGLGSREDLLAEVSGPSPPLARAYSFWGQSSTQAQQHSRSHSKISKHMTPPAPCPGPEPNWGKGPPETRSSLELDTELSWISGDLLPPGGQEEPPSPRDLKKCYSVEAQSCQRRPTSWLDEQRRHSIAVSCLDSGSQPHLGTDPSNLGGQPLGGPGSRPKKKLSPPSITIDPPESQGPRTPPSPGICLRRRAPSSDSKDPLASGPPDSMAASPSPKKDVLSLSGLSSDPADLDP

| Compound | inhibition at 1 µM (T-type Ca channel (α1G); BHK, T-type Ca channel, concentration 1 μM, BHK cells, 5 minutes after application, mean ± SE) [%] | inhibition at 10 µM (T-type Ca channel (α1G); BHK, T-type Ca channel, concentration 10 μM, BHK cells, 5 minutes after application, mean ± SE) [%] | Inhibition (%) (T-type Ca channel (α1G); [1]) | selectivity for T-type Ca channel (T-type Ca channel (α1G); T-type versus L-type Ca channel) | inhibition for T-type Ca channel (in words) (T-type Ca channel (α1G); concentration of 0.1 μM or more) | Inhibition (%) (L-type Ca channel; concentration 10 μM) | inhibition for L-type Ca channel (in words) (L-type Ca channel; concentration of 10 μM) | Inhibition (%) (T-type Ca channel (α1G); T-type Ca channel, concentration 1 μM, BHK cells, 5 minutes after application, mean ± SE, 1 µM) | Inhibition (%) (T-type Ca channel (α1G); T-type Ca channel, concentration 10 μM, BHK cells, 5 minutes after application, mean ± SE, 10 µM) | Inhibition (%) (L-type Ca channel; concentration 1 μM) |
| --- | --- | --- | --- | --- | --- | --- | --- | --- | --- | --- |
| CC1=C(C(=O)OCCN(Cc2ccccc2)c2ccccc2)C(c2cccc([N+](=O)[O-])c2)C(P2(=O)OCC(C)(C)CO2)=C(C)N1 (centres unmarked) [Efonidipine R-form, 1,4-dihydro-2,6-dimethyl-5-(5,5-dimethyl-2-oxo-1,3,2-dioxaphosphorinan-2-yl)-4-(3-nitrophenyl)-3-pyridine carboxylic acid 2-[benzyl (phenyl)amino]ethylester] | 41.7 ± 5.3 | 72.7 ± 5.6 | 19.4 ± 4.88 | high selectivity | concentration-dependent inhibition | 2.2 ± 3.4 | did not show any inhibition |  |  |  |
| CC1=C(C(=O)OCCN(Cc2ccccc2)c2ccccc2)C(c2cccc([N+](=O)[O-])c2)C(P2(=O)OCC(C)(C)CO2)=C(C)N1 (centres unmarked) [Efonidipine S-form, 1,4-dihydro-2,6-dimethyl-5-(5,5-dimethyl-2-oxo-1,3,2-dioxaphosphorinan-2-yl)-4-(3-nitrophenyl)-3-pyridine carboxylic acid 2-[benzyl (phenyl)amino]ethylester, reference compound] |  |  | 7.7 |  |  |  |  | 42.9 ± 8.4 | 75.6 ± 7.1 | 55.6±7.1 |
